Measured values: US20210395239A1 (Hoffmann-La Roche Inc., priority 2018, published 2021)

Molecular target: T1, human TLR7 (Homo sapiens, UniProt Q9NYK1)
T1 construct: host or cells: HEK293 (HEK-Blue hTLR7)
T1 sequence (Q9NYK1 27-1049): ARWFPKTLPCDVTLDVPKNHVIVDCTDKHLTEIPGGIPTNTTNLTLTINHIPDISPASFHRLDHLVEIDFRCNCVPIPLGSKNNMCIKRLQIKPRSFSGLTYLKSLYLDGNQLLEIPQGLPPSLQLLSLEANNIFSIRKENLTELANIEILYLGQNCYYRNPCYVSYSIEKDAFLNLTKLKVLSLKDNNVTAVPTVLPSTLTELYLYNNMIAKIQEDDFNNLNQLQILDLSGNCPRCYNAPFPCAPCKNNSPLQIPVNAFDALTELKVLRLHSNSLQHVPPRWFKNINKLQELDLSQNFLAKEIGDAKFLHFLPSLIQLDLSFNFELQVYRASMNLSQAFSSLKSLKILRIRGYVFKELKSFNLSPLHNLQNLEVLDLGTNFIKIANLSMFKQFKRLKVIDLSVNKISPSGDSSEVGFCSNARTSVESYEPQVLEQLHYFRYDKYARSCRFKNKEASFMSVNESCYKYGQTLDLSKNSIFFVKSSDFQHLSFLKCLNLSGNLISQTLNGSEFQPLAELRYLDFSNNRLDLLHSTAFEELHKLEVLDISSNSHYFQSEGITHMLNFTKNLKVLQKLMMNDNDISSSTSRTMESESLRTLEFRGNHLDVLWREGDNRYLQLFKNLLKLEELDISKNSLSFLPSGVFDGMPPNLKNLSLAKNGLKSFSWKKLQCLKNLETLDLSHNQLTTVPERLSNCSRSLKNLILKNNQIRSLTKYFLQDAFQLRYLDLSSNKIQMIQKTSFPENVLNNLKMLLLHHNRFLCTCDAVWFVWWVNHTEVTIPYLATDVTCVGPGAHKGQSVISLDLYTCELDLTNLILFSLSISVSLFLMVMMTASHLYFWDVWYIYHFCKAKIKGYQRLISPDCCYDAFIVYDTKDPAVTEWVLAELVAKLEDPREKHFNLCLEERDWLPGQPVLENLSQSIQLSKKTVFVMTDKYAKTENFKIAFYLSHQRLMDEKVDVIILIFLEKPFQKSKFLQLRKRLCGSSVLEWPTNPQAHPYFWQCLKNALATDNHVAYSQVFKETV
Experiment: HEK293-Blue-hTLR-7 cells assay (SEAP reporter, R848 stimulation)
Assay type: cell-based
Details: HEK293-Blue-hTLR7 cells, R848, 20 hrs; read-out: HEK/hTLR7 IC50
Procedure, shortened: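 HEK293-Blue-hTLR7 cells (NF-κB/AP-1-driven SEAP reporter) were stimulated with R848 alongside serially diluted compound at 1% final DMSO for 20 h at 37 °C. Supernatant SEAP was then developed with QUANTI-Blue for 2 h at 37 °C and absorbance read at 620–655 nm; antagonism is measured as reduced reporter signal.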

IC50 [nM]	SMILES
28	C[C@@H]1CN(c2ccc(C#N)c3ncccc23)C[C@H](CN2CCN(c3ccc(N4CC(N)C(F)C4)nc3)CC2)O1 (stereo partly drawn) [Example 44, 5-[(2S,6R)-2-[[4-[6-(3-amino-4-fluoro-pyrrolidin-1-yl)-3-pyridyl]piperazin-1-yl]methyl]-6-methyl-morpholin-4-yl]quinoline-8-carbonitrile]
15	C[C@@H]1CN(c2ccc(C#N)c3ncccc23)C[C@H](CN2CCN(c3nc(N4CCNCC4)ncc3F)CC2)O1 [Example 45, 5-[(2S,6R)-2-[[4-(5-fluoro-2-piperazin-1-yl-pyrimidin-4-yl)piperazin-1-yl]methyl]-6-methyl-morpholin-4-yl]quinoline-8-carbonitrile]
18	Cc1nc(N2CCNCC2)nc(N2CCN(C[C@H]3CN(c4ccc(C#N)c5ncccc45)C[C@@H](C)O3)CC2)c1C [Example 46, 5-[(2S,6R)-2-[[4-(5,6-dimethyl-2-piperazin-1-yl-pyrimidin-4-yl)piperazin-1-yl]methyl]-6-methyl-morpholin-4-yl]quinoline-8-carbonitrile]
13	Cc1cc(N2CCN(C[C@H]3CN(c4ccc(C#N)c5ncccc45)C[C@@H](C)O3)CC2)nc(N2CCNCC2)n1 [Example 47, 5-[(2R,6S)-2-methyl-6-[[4-(6-methyl-2-piperazin-1-yl-pyrimidin-4-yl)piperazin-1-yl]methyl]morpholin-4-yl]quinoline-8-carbonitrile]
9	COc1cnc(N2CCNCC2)nc1N1CCN(C[C@H]2CN(c3ccc(C#N)c4ncccc34)C[C@@H](C)O2)CC1 [Example 48, 5-[(2S,6R)-2-[[4-(5-methoxy-2-piperazin-1-yl-pyrimidin-4-yl)piperazin-1-yl]methyl]-6-methyl-morpholin-4-yl]quinoline-8-carbonitrile]
29	C[C@@H]1CN(c2ccc(C#N)c3ncccc23)C[C@H](CN2CCN(c3nc(N4CCNCC4)nc4ccccc34)CC2)O1 [Example 49, 5-[(2R,6S)-2-methyl-6-[[4-(2-piperazin-1-ylquinazolin-4-yl)piperazin-1-yl]methyl]morpholin-4-yl]quinoline-8-carbonitrile]
16	C[C@@H]1CN(c2ccc(C#N)c3ncccc23)C[C@H](CN2CCN(c3nc(N4CCNCC4)ncc3C#N)CC2)O1 [Example 50, 5-[(2S,6R)-2-[[4-(5-cyano-2-piperazin-1-yl-pyrimidin-4-yl)piperazin-1-yl]methyl]-6-methyl-morpholin-4-yl]quinoline-8-carbonitrile]
28	C[C@@H]1CN(c2ccc(C#N)c3ncccc23)C[C@H](CN2CCN(c3ncc(C#N)c(N4CCNCC4)n3)CC2)O1 [Example 51, 5-[(2S,6R)-2-[[4-(5-cyano-4-piperazin-1-yl-pyrimidin-2-yl)piperazin-1-yl]methyl]-6-methyl-morpholin-4-yl]quinoline-8-carbonitrile]
14	Cc1cc(N2CCN(C[C@H]3CN(c4ccc(C#N)c5ncccc45)C[C@@H](C)O3)CC2)nc(N2C[C@@H](N)[C@@H](F)C2)n1 [Example 55, 5-[(2S,6R)-2-[[4-[2-[(3R,4S)-3-amino-4-fluoro-pyrrolidin-1-yl]-6-methyl-pyrimidin-4-yl]piperazin-1-yl]methyl]-6-methyl-morpholin-4-yl]quinoline-8-carbonitrile]
56	Cc1cc(N2CCN(C[C@H]3CN(c4ccc(C#N)c5ncccc45)C[C@@H](C)O3)CC2)nc(N2CCOCC(N)C2)n1 (stereo partly drawn) [Example 56, 5-[(2S,6R)-2-[[4-[2-(6-amino-1,4-oxazepan-4-yl)-6-methyl-pyrimidin-4-yl]piperazin-1-yl]methyl]-6-methyl-morpholin-4-yl]quinoline-8-carbonitrile]
27	Cc1cc(N2CCN(C[C@H]3CN(c4ccc(C#N)c5ncccc45)C[C@@H](C)O3)CC2)nc(NC2CNCC2C#N)n1 (stereo partly drawn) [Example 57, 5-[(2S,6R)-2-[[4-[2-[(4-cyanopyrrolidin-3-yl)amino]-6-methyl-pyrimidin-4-yl]piperazin-1-yl]methyl]-6-methyl-morpholin-4-yl]quinoline-8-carbonitrile]
30	Cc1cc(N2CCN(C[C@H]3CN(c4ccc(C#N)c5ncccc45)C[C@@H](C)O3)CC2)nc(N2C[C@@H]3COC[C@@H](C2)N3)n1 [Example 58, 5-[(2R,6S)-2-methyl-6-[[4-[6-methyl-2-[(1R,5R)-3-oxa-7,9-diazabicyclo[3.3.1]nonan-7-yl]pyrimidin-4-yl]piperazin-1-yl]methyl]morpholin-4-yl]quinoline-8-carbonitrile]
11	CO[C@H]1CN(c2nc(C)cc(N3CCN(C[C@H]4CN(c5ccc(C#N)c6ncccc56)C[C@@H](C)O4)CC3)n2)C[C@H]1N [Example 60, 5-[(2R,6S)-2-methyl-6-[[4-[6-methyl-2-[cis-3-amino-4-methoxy-pyrrolidin-1-yl]pyrimidin-4-yl]piperazin-1-yl]methyl]morpholin-4-yl]quinoline-8-carbonitrile]
8	Cc1cc(N2CCN(C[C@H]3CN(c4ccc(C#N)c5ncccc45)C[C@@H](C)O3)CC2)nc(N2CC3(CNCCO3)C2)n1 [Example 61, 5-[(2R,6S)-2-methyl-6-[[4-[6-methyl-2-(5-oxa-2,8-diazaspiro[3.5]nonan-2-yl)pyrimidin-4-yl]piperazin-1-yl]methyl]morpholin-4-yl]quinoline-8-carbonitrile]
18	C[C@@H]1CN(c2ccc(C#N)c3ncccc23)C[C@H](CN2CCN(c3cccc(C4CNCCO4)c3)CC2)O1 (stereo partly drawn) [Example 62, 5-[(2R,6S)-2-methyl-6-[[4-(3-morpholin-2-ylphenyl)piperazin-1-yl]methyl]-morpholin-4-yl]quinoline-8-carbonitrile]
54	Cc1cc(N2CCN(C[C@H]3CN(c4ccc(C#N)c5ncccc45)C[C@@H](C)O3)CC2)nc(N2CC(N)C(F)(F)C2)n1 (stereo partly drawn) [Example 63, 5-[(2S,6R)-2-[[4-[2-(4-amino-3,3-difluoro-pyrrolidin-1-yl)-6-methyl-pyrimidin-4-yl]piperazin-1-yl]methyl]-6-methyl-morpholin-4-yl]quinoline-8-carbonitrile]
5	Cc1cc(N2CCN(C[C@H]3CN(c4ccc(C#N)c5nccnc45)C[C@@H](C)O3)CC2)nc(N2CCNCC2)n1 [Example 64, 8-[(2R,6S)-2-methyl-6-[[4-(6-methyl-2-piperazin-1-yl-pyrimidin-4-yl)piperazin-1-yl]methyl]morpholin-4-yl]quinoxaline-5-carbonitrile]
15	Cc1cc(N2CCN(C[C@H]3CN(c4ccc(C(F)(F)F)c5nccnc45)C[C@@H](C)O3)CC2)nc(N2CCNCC2)n1 [Example 65, (2R,6S)-2-methyl-6-[[4-(6-methyl-2-piperazin-1-yl-pyrimidin-4-yl)piperazin-1-yl]methyl]-4-[8-(trifluoromethyl)quinoxalin-5-yl]morpholine]
17	Cc1cc(N2CCN(C[C@H]3CN(c4ccc(C#N)c5ncccc45)C[C@@H](C)O3)CC2)nc(N2CCNCC(O)C2)n1 (stereo partly drawn) [Example 66, 5-[(2S,6R)-2-[[4-[2-(6-hydroxy-1,4-diazepan-1-yl)-6-methyl-pyrimidin-4-yl]piperazin-1-yl]methyl]-6-methyl-morpholin-4-yl]quinoline-8-carbonitrile]
24	Cc1cc(N2CCN(C[C@H]3CN(c4ccc(C#N)n5ncc(F)c45)C[C@@H](C)O3)CC2)nc(N2CCNCC2)n1 [Example 67, 3-Fluoro-4-[(2R,6S)-2-methyl-6-[[4-(6-methyl-2-piperazin-1-yl-pyrimidin-4-yl)piperazin-1-yl]methyl]morpholin-4-yl]pyrazolo[1,5-a]pyridine-7-carbonitrile]
9	Cc1cc(N2CCNCC2)nc(N2CCN(C[C@H]3CN(c4ccc(C#N)c5ncccc45)C[C@@H](C)O3)CC2)n1 [Example 68, 5-[(2R,6S)-2-methyl-6-[[4-(4-methyl-6-piperazin-1-yl-pyrimidin-2-yl)piperazin-1-yl]methyl]morpholin-4-yl]quinoline-8-carbonitrile]
14	C[C@@H]1CN(c2ccc(C#N)n3ncc(F)c23)C[C@H](CN2CCN(c3ccc(N[C@H]4CNC[C@H]4F)nc3)CC2)O1 [Example 167, 3-fluoro-4-[(2S,6R)-2-[[4-[6-[[(3S,4R)-4-fluoropyrrolidin-3-yl]amino]-3-pyridyl]piperazin-1-yl]methyl]-6-methyl-morpholin-4-yl]pyrazolo[1,5-a]pyridine-7-carbonitrile]
